Key:
[1] = system: cells without the receptor; experiment: Activity assay control: cells without the receptor stimulated with magnesium or manganese; assay type: cell-based, human; conditions: FIG. 1 right panels
Excerpt: (§1) Candidate receptors are expressed in human embryonic kidney (HEK) cells containing, e.g., the Gα16-Gαz and/or Gα15 promiscuous G proteins (Offermanns et al., J. Biol. Chem. 270:15175-15180 (1995); Mody et al., Mol. Pharmacol. 57:13-23 (2000)), and assayed for stimulus-evoked changes in intracellular calcium. In this system, receptor activation leads to activation of phospholipase Cβ (PLC-β and release of calcium from internal stores, which can be monitored at the single-cell level using calcium-indicator dyes (Chandrashekar et al., Cell 100:703-711 (2000); Nelson et al., Cell 106:381-390 (2001); Tsien et al., Cell Calcium 6:145-157 (1985)).

R5.24 = target: T1, R5.24 (Homo sapiens, UniProt Q5T6X5); experiment: Activity assay for R5.24 receptor: stimulus-evoked changes in intracellular calcium in cells expressing R5.24; assay type: cell-based; conditions: FIG. 1 middle panels, calcium signal
T1 construct: expressed in transfected cells; host or cells: human embryonic kidney (HEK) cells containing Gα16-Gαz and/or Gα15 promiscuous G proteins
T1 sequence (Q5T6X5 19-926): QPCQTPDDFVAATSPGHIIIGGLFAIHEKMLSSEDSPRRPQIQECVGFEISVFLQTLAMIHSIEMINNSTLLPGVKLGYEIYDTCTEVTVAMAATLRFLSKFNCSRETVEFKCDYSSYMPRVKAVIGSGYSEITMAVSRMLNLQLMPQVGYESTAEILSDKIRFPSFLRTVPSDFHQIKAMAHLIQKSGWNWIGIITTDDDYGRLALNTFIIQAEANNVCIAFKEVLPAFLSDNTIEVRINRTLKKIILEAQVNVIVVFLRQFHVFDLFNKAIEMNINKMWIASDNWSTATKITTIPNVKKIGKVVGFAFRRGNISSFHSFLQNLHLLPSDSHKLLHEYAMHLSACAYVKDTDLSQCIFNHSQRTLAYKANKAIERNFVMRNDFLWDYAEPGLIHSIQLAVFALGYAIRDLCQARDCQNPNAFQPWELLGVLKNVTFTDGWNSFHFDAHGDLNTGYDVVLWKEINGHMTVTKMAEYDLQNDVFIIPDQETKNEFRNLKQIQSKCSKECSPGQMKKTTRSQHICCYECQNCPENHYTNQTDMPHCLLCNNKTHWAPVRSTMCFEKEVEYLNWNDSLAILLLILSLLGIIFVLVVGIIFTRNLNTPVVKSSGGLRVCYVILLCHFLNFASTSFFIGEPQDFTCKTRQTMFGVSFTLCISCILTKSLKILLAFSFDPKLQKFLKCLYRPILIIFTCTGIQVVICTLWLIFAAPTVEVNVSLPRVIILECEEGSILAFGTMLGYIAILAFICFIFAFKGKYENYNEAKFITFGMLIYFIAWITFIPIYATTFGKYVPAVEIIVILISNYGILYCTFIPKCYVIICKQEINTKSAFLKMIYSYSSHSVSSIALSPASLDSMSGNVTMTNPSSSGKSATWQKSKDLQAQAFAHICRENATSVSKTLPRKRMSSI
Excerpt: as §1

Compound	response of cells without the receptor to stimulation [1]	response of cells expressing R5.24 to stimulation (R5.24)
[Mg+2] [magnesium]	do not respond	respond
[Mn+2] [manganese]	do not respond	respond

Source: patent US20050250113A1, “Mammalian magnesium/manganese sensing G protein coupled receptor” (The Regents of the University of California, priority 2004, published 2005)
